Common to all, as to format: cell-based
Data set [1] deals with LPS-stimulated mouse peritoneal macrophages. On the procedure:
(§1) ^aAnti-inflammatory interactions between peptide 1 and peptide 2 of AeaeCec peptides were determined by the chequerboard assay as described previously. First, 2-fold serial dilutions of peptides were prepared. Next, peptides were dissolved in PBS and added to mouse macrophages to final concentrations of 5, 2.5, 1.25, 0.625, 0.3125 µMin each well of a 96-well plate in the presence of E. coli LPS (100 ng/ml). The same volume of PBS served as a control. After incubation at 37˚Cfor 24 h, the culture supernatants of mouse macrophages were detected for the NO production (nitrite accumulation) using Griess reagent. Half maximal inhibitory concentrations (IC50) were calculated. The fractional inhibitory concentration index (FICI) was calculated for each combination using this equation: FICI = FICA+ FICB, where FICA= IC50 of peptide A in combination/IC50 of peptide A alone, and FICB= IC50 of peptide B in combination/IC50 of peptide B alone. FICI of ≤ 0.5 was interpreted as synergy, 0.5 < FICI ≤ 1.0 as additive, 1.0 < FICI ≤ 4.0 as indifferent, and FICI > 4.0 as antagonism. Data were calculated from three independent experiments and presented as mean ± SEM.
as §1, with “2” for “2 of AeaeCec peptides”, “µM in” for “µMin”, “supernatant” for “supernatants”, “assayed” for “detected”, “for” for “for the”, “≤1.0” for “≤ 1.0”

Data set [2] deals with mouse peritoneal macrophages. Nature of the data set: CCK-8 cytotoxic assay. As to conditions: 24 h. On the procedure: Cell Counting Kit-8 (CCK-8) was used to detect the cytotoxicity of AeaeCec1-5 against mammalian cells. In brief, mouse peritoneal macrophages, human PBMCs and Vero E6 cells were seeded in 96-well plates (2×10^4 cells/well, 100 μl/well). After cells adhered to culture plate, the culture medium was transferred with a two-fold dilution series of AeaeCec1-5 beginning with 50 μM (100 μl) prepared in serum-free RPMI-1640 for mouse macrophages and human PBMCs, and serum-free DMEM for Vero E6 cells. After incubation at 37 °C for 24 h, CCK-8 solution (10 μl/well) was added for an additional 4 h incubation. The absorbance at 450 nm was recorded on a microplate reader (Epoch Etock, BioTek, Vermont, USA).
Supplementary file 13071_2018_3000_MOESM2_ESM.tif: Additional file 2: Figure S1. Cytotoxicity of Ae. aegypti cecropins against mammalian cells. a Mice peritoneal macrophages, human PBMCs and Vero E6 cells were exposed to 50 μM AeaeCec1-5, respectively. b Mice peritoneal macrophages and human PBMCs were exposed to series of two-fold AeaeCec5 dilutions ranging from 3.125 to 50 μM, respectively. (TIF 161 kb)
(In general: Tetrazolium assays rely on reduction of a dye to a coloured formazan, in cell work by metabolically active cells.)

Data set [3] deals with E. coli. An excerpt: MIC: minimal inhibitory concentration. These concentrations represent mean values of three independent experiments performed in duplicates. CI: clinically isolated strain.
[4] abbreviates: IC50 in combination with AeaeCec1 / IC50 alone.
Setting [5] is: IC50 in combination with AeaeCec2 / IC50 alone.
The mark [6] stands for this setting: IC50 in combination with AeaeCec3 / IC50 alone.
The mark [7] stands for this setting: IC50 in combination with AeaeCec5(2W→2A) / IC50 alone.
The mark [8] stands for this setting: IC50 in combination with AeaeCec5 / IC50 alone.
[9] abbreviates: IC50 in combination with AeaeCec4 / IC50 alone.

The values that follow come from article PMC6092832, “Anti-inflammatory activities of Aedes aegypti cecropins and their protection against murine endotoxin shock” (Parasites & Vectors, 2018).

Like-named read-outs stand apart in the source and are kept apart here. Where no end group is shown, it is not given here.

Take “GGLKKLGKKLEGAGKRVFKASEKALPVVVGIKAI-NH2 [AeaeCec4]”: the FIC in data set [1] (setting [4]) is on record as 0.50; in data set [1] (setting [5]) it was 0.49; in data set [1] (setting [6]) it was 0.52; in data set [1] (setting [7]), 0.53; in data set [1] (setting [8]) it was 0.43.

With “GGLKKLGKKLEGAGKRVFNAAEKALPVVAGAKAL-NH2 [AeaeCec2]”, the FIC is 0.50 in data set [1] (setting [4]); 0.49 in data set [1] (setting [6]); 0.53 in data set [1] (setting [9]); 0.50 in data set [1] (setting [7]); 0.47 in data set [1] (setting [8]).

Turning to “GGLKKLGKKLEGAGKRVFNAAEKALPVVAGAKALRK [AeaeCec1]”, the FIC came out at 0.52 in data set [1] (setting [5]); 0.53 in data set [1] (setting [6]); 0.54 in data set [1] (setting [9]); 0.47 in data set [1] (setting [7]); 0.42 in data set [1] (setting [8]).

Regarding “GGLKKLGKKLEGVGKRVFKASEKALPVVTGYKAI-NH2 [AeaeCec3]”, the FIC is 0.49 in data set [1] (setting [4]); 0.52 in data set [1] (setting [5]); 0.50 in data set [1] (setting [9]); 0.51 in data set [1] (setting [7]); 0.47 in data set [1] (setting [8]).

“RAKFGKKLEKVGKNVFNAAKKALPVVAGYKAL-NH2 [AeaeCec5(2W→2A)]”: the FIC was 0.61 in data set [1] (setting [4]), 0.57 in data set [1] (setting [5]), 0.54 in data set [1] (setting [6]) and 0.56 in data set [1] (setting [9]).

As for “RWKFGKKLEKVGKNVFNAAKKALPVVAGYKAL-NH2 [AeaeCec5]”, the cytotoxicity in data set [2] (12.5 μM) is listed as 9.5%; in data set [2] (concentration below 6.25 μM), “no cytotoxicity”. The substance also came in with a cell death in data set [2] (50 μM) of 28.9%. For the same substance, the minimal inhibitory concentrations in data set [3] was in the range of 1.17 to 2.34 mg/L. Further, the FIC in data set [1] (setting [4]) stood at 0.44; in data set [1] (setting [5]) it was 0.42; in data set [1] (setting [6]), 0.47; in data set [1] (setting [9]), 0.46.
